Counter-ions that a name gives are not always drawn.
Target: T1, AR in VCaP cells (Homo sapiens, UniProt P10275)
T1 construct: endogenous in cells; host or cells: VCaP cells
T1 sequence (P10275 1-920): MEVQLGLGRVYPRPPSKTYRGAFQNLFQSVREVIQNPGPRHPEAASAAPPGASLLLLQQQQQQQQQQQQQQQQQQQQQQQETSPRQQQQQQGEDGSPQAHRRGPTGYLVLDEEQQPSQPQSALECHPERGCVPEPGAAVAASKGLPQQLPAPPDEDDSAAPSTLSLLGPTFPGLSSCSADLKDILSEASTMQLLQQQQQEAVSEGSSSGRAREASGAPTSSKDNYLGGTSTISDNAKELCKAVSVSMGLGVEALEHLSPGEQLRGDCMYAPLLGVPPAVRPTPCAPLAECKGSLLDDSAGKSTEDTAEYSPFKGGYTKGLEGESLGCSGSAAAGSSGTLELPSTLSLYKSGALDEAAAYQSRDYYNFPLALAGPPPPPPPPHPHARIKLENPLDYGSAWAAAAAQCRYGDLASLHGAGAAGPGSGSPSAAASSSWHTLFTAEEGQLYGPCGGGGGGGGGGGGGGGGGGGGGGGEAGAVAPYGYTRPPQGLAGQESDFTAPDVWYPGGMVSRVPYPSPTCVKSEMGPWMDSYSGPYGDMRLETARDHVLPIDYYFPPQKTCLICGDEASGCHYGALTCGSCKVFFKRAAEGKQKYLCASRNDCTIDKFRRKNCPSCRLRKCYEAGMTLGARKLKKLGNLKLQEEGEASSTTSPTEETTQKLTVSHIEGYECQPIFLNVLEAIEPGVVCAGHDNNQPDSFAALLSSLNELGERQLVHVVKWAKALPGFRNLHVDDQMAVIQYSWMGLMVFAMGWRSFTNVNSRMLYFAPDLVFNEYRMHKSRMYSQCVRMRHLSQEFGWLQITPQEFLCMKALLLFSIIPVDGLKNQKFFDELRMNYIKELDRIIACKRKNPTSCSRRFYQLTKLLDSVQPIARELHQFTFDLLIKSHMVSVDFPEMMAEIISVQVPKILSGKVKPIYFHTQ
Assay: VCAP AR Degradation Assay (AR ELISA, 24 h)
Type: cell-based
Details: for DC50: concentration giving 50% AR degradation vs DMSO control; for remaining activity at up to 5 µM: lowest measured AR level normalized to DMSO control, top concentration 5 μM, read-out: Y
Procedure: VCAP AR Degradation Assay. Test compounds were pre-dispensed into a Corning CellBind 96-well clear bottom plate (Cat #3300) using an acoustic dispenser to make a 10-point concentration series at 1:3 dilution for each compound. The final top concentration of each compound was 5 μM. DMSO at a final concentration of 0.1% was used as a control. VCaP cells cultured in DMEM with 8% fetal bovine serum (FBS) were seeded at 50K cells per well in a 200 μL volume into the compound plate and incubated at 37° C. in a CO2 incubator for 24 h. The medium was carefully removed from the cells and the plate was placed on ice. One hundred μL of ice-cold 1× cell lysis buffer from Cell Signaling Technologies (Cat #9803) was added to each well of the cells and the plate was incubated at 4° C. on a shaker for 1 h. Fifteen μL of cell lysate was used for AR ELISA detection using a PathScan Total Sandwich AR ELISA kit (Cell Signaling Technology, Cat #12580). AR levels in compound-treated wells were normalized to that of DMSO control and expressed as percent of control (PoC) (y). A Four Parameter Logistic Model (Sigmoidal Dose-Response Model) was used to determine the compound's DC50, and EC50, using the following equation: […]
The lowest measured AR level normalized to DMSO control in response to compound treatment, termed Y value, was used to characterize the compound-mediated AR degradation efficiency.

SMILES | DC50 [nM] | remaining activity at up to 5 µM [%]
C[C@@H]1C[C@H](OCCO[C@H]2CC[C@H](N3C(=S)N(c4cnc(C#N)c(C(F)(F)F)c4)C(=O)C3(C)C)CC2)C[C@H](C)N1CC(=O)Nc1ccc(C2CCC(=O)NC2=O)nc1 (stereo partly drawn) [Cmpd 30, 2-((2R,4r,6S)-4-(2-(((trans)-4-(3-(6-Cyano-5-(trifluoromethyl)pyridin-3-yl)-5,5-dimethyl-4-oxo-2-thioxoimidazolidin-1-yl)cyclohexyl)oxy)ethoxy)-2,6-dimethylpiperidin-1-yl)-N-(6-(2,6-dioxopiperidin-3-yl)pyridin-3-yl)acetamide] | ≤ 5 | 0 to 20
C[C@@H]1CN(CCO[C@H]2CC[C@H](N3C(=S)N(c4ccc(C#N)c(C(F)(F)F)c4)C(=O)C3(C)C)CC2)C[C@H](C)N1CC(=O)Nc1ccc(N2CCC(=O)NC2=O)nc1 [Cmpd 1, 2-((2R,6S)-4-(2-((trans-4-(3-(4-Cyano-3-(trifluoromethyl)phenyl)-5,5-dimethyl-4-oxo-2-thioxoimidazolidin-1-yl)cyclohexyl)oxy)ethyl)-2,6-dimethylpiperazin-1-yl)-N-(6-(2,4-dioxotetrahydropyrimidin-1(2H)-yl)pyridin-3-yl)acetamide] | 100 to 10000 | 30 to 70
C[C@@H]1CN(CCO[C@H]2CC[C@H](N3C(=S)N(c4ccc(C#N)c(C(F)(F)F)c4)C(=O)C3(C)C)CC2)C[C@H](C)N1CC(=O)Nc1ccc(C2CCC(=O)NC2=O)nc1 (stereo partly drawn) [Cmpd 2, 2-((2R,6S)-4-(2-((trans-4-(3-(4-Cyano-3-(trifluoromethyl)phenyl)-5,5-dimethyl-4-oxo-2-thioxoimidazolidin-1-yl)cyclohexyl)oxy)ethyl)-2,6-dimethylpiperazin-1-yl)-N-(6-(2,6-dioxopiperidin-3-yl)pyridin-3-yl)acetamide hydrochloride] | 5 to 10 | 30 to 70
CC1(C)C(=O)N(c2cnc(C#N)c(C(F)(F)F)c2)C(=S)N1[C@H]1CC[C@H](OCCC2CCN(CC(=O)Nc3ccc(C4CCC(=O)NC4=O)nc3)CC2(F)F)CC1 (stereo partly drawn) [Cmpd 32, 2-(4-(2-(((trans)-4-(3-(6-Cyano-5-(trifluoromethyl)pyridin-3-yl)-5,5-dimethyl-4-oxo-2-thioxoimidazolidin-1-yl)cyclohexyl)oxy)ethyl)-3,3-difluoropiperidin-1-yl)-N-(6-(2,6-dioxopiperidin-3-yl)pyridin-3-yl)acetamide] | ≤ 5 | 0 to 20
C[C@@H]1CN(CCCO[C@H]2CC[C@H](N3C(=S)N(c4ccc(C#N)c(C(F)(F)F)c4)C(=O)C3(C)C)CC2)C[C@H](C)N1CC(=O)Nc1ccc(N2CCC(=O)NC2=O)nc1 [Cmpd 12, 2-((2R,6S)-4-(3-((trans-4-(3-(4-Cyano-3-(trifluoromethyl)phenyl)-5,5-dimethyl-4-oxo-2-thioxoimidazolidin-1-yl)cyclohexyl)oxy)propyl)-2,6-dimethylpiperazin-1-yl)-N-(6-(2,4-dioxotetrahydropyrimidin-1(2H)-yl)pyridin-3-yl)acetamide hydrochloride] | 100 to 10000 | 30 to 70
C[C@@H]1C[C@@H](CCO[C@H]2CC[C@H](N3C(=S)N(c4ccc(C#N)c(C(F)(F)F)c4)C(=O)C3(C)C)CC2)C[C@H](C)N1CC(=O)Nc1ccc(C2CCC(=O)NC2=O)nc1 (stereo partly drawn) [Cmpd 14, 2-((2R,4r,6S)-4-(2-((trans-4-(3-(4-Cyano-3-(trifluoromethyl)phenyl)-5,5-dimethyl-4-oxo-2-thioxoimidazolidin-1-yl)cyclohexyl)oxy)ethyl)-2,6-dimethylpiperidin-1-yl)-N-(6-(2,6-dioxopiperidin-3-yl)pyridin-3-yl)acetamide hydrochloride] | ≤ 5 | 20 to 30
C[C@@H]1CN(CCC[C@H]2CC[C@H](N3C(=S)N(c4cnc(C#N)c(Cl)c4)C(=O)C3(C)C)CC2)C[C@H](C)N1CC(=O)Nc1ccc(C2CCC(=O)NC2=O)nc1 (stereo partly drawn) [Cmpd 11, 2-((2S,6R)-4-(3-(trans-4-(3-(5-Chloro-6-cyanopyridin-3-yl)-5,5-dimethyl-4-oxo-2-thioxoimidazolidin-1-yl)cyclohexyl)propyl)-2,6-dimethylpiperazin-1-yl)-N-(6-(2,6-dioxopiperidin-3-yl)pyridin-3-yl)acetamide hydrochloride] | ≤ 5 | 20 to 30
C[C@@H]1CN(CCC[C@H]2CC[C@H](N3C(=S)N(c4ccc(C#N)c(Cl)c4)C(=O)C3(C)C)CC2)C[C@H](C)N1CC(=O)Nc1ccc(C2CCC(=O)NC2=O)nc1 (stereo partly drawn) [Cmpd 10, 2-((2R,6S)-4-(3-(trans-4-(3-(3-Chloro-4-cyanophenyl)-5,5-dimethyl-4-oxo-2-thioxoimidazolidin-1-yl)cyclohexyl)propyl)-2,6-dimethylpiperazin-1-yl)-N-(6-(2,6-dioxopiperidin-3-yl)pyridin-3-yl)acetamide hydrochloride] | 10 to 100 | 30 to 70
C[C@@H]1C[C@H](OCC[C@H]2CC[C@H](N3C(=S)N(c4cnc(C#N)c(C(F)(F)F)c4)C(=O)C3(C)C)CC2)C[C@H](C)N1CC(=O)Nc1ccc(C2CCC(=O)NC2=O)nc1 (stereo partly drawn) [Cmpd 28, 2-((2R,4r,6S)-4-(2-((trans)-4-(3-(6-Cyano-5-(trifluoromethyl)pyridin-3-yl)-5,5-dimethyl-4-oxo-2-thioxoimidazolidin-1-yl)cyclohexyl)ethoxy)-2,6-dimethylpiperidin-1-yl)-N-(6-(2,6-dioxopiperidin-3-yl)pyridin-3-yl)acetamide] | ≤ 5 | 20 to 30
C[C@@H]1C[C@H](CCO[C@H]2CC[C@H](N3C(=S)N(c4ccc(C#N)c(C(F)(F)F)c4)C(=O)C3(C)C)CC2)C[C@H](C)N1CC(=O)Nc1ccc(C2CCC(=O)NC2=O)nc1 (stereo partly drawn) [Cmpd 17, 2-((2R,4r,6S)-4-(2-(((trans)-4-(3-(4-Cyano-3-(trifluoromethyl)phenyl)-5,5-dimethyl-4-oxo-2-thioxoimidazolidin-1-yl)cyclohexyl)oxy)ethyl)-2,6-dimethylpiperidin-1-yl)-N-(6-(2,6-dioxopiperidin-3-yl)pyridin-3-yl)acetamide] | ≤ 5 | 20 to 30
C[C@@H]1CN(CCO[C@H]2CC[C@H](N3C(=S)N(c4ccc(C#N)c(C(F)(F)F)c4)C(=O)C3(C)C)CC2)C[C@H](C)N1CCC(=O)Nc1ccc(N2CCC(=O)NC2=O)nc1 [Cmpd 9, 3-((2R,6S)-4-(2-((trans-4-(3-(4-Cyano-3-(trifluoromethyl)phenyl)-5,5-dimethyl-4-oxo-2-thioxoimidazolidin-1-yl)cyclohexyl)oxy)ethyl)-2,6-dimethylpiperazin-1-yl)-N-(6-(2,4-dioxotetrahydropyrimidin-1(2H)-yl)pyridin-3-yl)propanamide] | 10 to 100 | 30 to 70
C[C@@H]1CN(CCC[C@H]2CC[C@H](N3C(=S)N(c4cnc(C#N)c(C(F)(F)F)c4)C(=O)C3(C)C)CC2)C[C@H](C)N1CC(=O)Nc1ccc(C2CCC(=O)NC2=O)nc1 (stereo partly drawn) [Cmpd 8, 2-((2R,6S)-4-(3-(trans-4-(3-(6-Cyano-5-(trifluoromethyl)pyridin-3-yl)-5,5-dimethyl-4-oxo-2-thioxoimidazolidin-1-yl)cyclohexyl)propyl)-2,6-dimethylpiperazin-1-yl)-N-(6-(2,6-dioxopiperidin-3-yl)pyridin-3-yl)acetamide hydrochloride] | ≤ 5 | 20 to 30
C[C@@H]1CN(CCCC[C@H]2CC[C@H](N3C(=S)N(c4ccc(C#N)c(C(F)(F)F)c4)C(=O)C3(C)C)CC2)C[C@H](C)N1CC(=O)Nc1ccc(N2CCC(=O)NC2=O)nc1 [Cmpd 15, 2-((2R,6S)-4-(4-((trans)-4-(3-(4-Cyano-3-(trifluoromethyl)phenyl)-5,5-dimethyl-4-oxo-2-thioxoimidazolidin-1-yl)cyclohexyl)butyl)-2,6-dimethylpiperazin-1-yl)-N-(6-(2,4-dioxotetrahydropyrimidin-1(2H)-yl)pyridin-3-yl)acetamide] | 100 to 10000 | 30 to 70

— patent US20240374591A1, “CEREBLON BINDING COMPOUNDS, COMPOSITIONS THEREOF, AND METHODS OF TREATMENT THEREWITH” (CELGENE CORPORATION, priority 2021, published 2024)
